Values after ≈ are worked out from the molar mass of the structure shown. Where a SMILES comes first, the peptide text is derived from it. [ ]: non-standard residue; d: D form. The star is where a group is joined. Azidoacetyl = [N-]=[N+]=NCC(=O)*; Leu(ol) = CC(C)C[C@H](N)CO; Octanoyl = CCCCCCCC(=O)*; nOct = not defined here; Aib = CC(C)(N)C(=O)O
Tests used:
[1] = test system: Xanthomonas campestris pv. campestris; assay: MIC and MBC determinations against Xcc; type: cell-based; design: key to Bacteriostatic (MIC) / bactericidal (MBC) activity at 0.5 µM / Bacteriostatic (MIC) / bactericidal (MBC) activity at 1 µM / Bacteriostatic (MIC) / bactericidal (MBC) activity at 3 µM / Bacteriostatic (MIC) / bactericidal (MBC) activity at 2 µM: Dashes (-) indicate the absence of bacteriostatic or bactericidal activity; Minimal Inhibitory Concentration (MIC); Minimal Bactericidal Concentration (MBC); MIC and MBC: Minimal Inhibitory Concentration (MIC) and Minimal Bactericidal Concentration (MBC); conditions: for MIC: lowest concentration that completely inhibited visible growth, 72 h, tested 3, 2, 1 and 0.5 µM; for Bacteriostatic (MIC) / bactericidal (MBC) activity at 0.5 µM: peptide 0.5 µM; for Bacteriostatic (MIC) / bactericidal (MBC) activity at 0.5 µM / Bacteriostatic (MIC) / bactericidal (MBC) activity at 1 µM / Bacteriostatic (MIC) / bactericidal (MBC) activity at 2 µM / Bacteriostatic (MIC) / bactericidal (MBC) activity at 3 µM: 72 h growth inhibition, then plating on LBA 24 h; for Bacteriostatic (MIC) / bactericidal (MBC) activity at 1 µM: peptide 1 µM; for Bacteriostatic (MIC) / bactericidal (MBC) activity at 2 µM: peptide 2 µM; for Bacteriostatic (MIC) / bactericidal (MBC) activity at 3 µM: peptide 3 µM
Procedure: Peptaibols were tested at decreasing concentrations (3, 2, 1 and 0.5 µM). Minimal Bactericidal Concentration (MBC) was determined at the end of the incubation period (72 h) by plating, onto LBA plates, 5 µL samples that were collected from each well with no visible growth.

[2] = test system: Xanthomonas campestris pv. campestris strain RC1; assay: Growth inhibition assay against Xcc (OD600); conditions: LB, 27 °C, 72 h, OD 600 nm, three replicates, two independent experiments
[3] = test system: P. oryzae; conditions: cited from earlier work

Compound | MIC [1] | Bacteriostatic (MIC) / bactericidal (MBC) activity at 0.5 µM [1] | Bacteriostatic (MIC) / bactericidal (MBC) activity at 1 µM [1] | Inhibition of Xcc growth in vitro ([2]; peptide 3 µM) | Inhibition of Xcc growth in vitro ([2]; peptide 15 µM) | other results
CCCCCCCC(=O)NC(C)(C)C(=O)N[C@@H](CCCCN)C(=O)N[C@@H](CC(C)C)C(=O)NC(C)(C)C(=O)NCC(=O)NCC(=O)N[C@@H](CC(C)C)C(=O)NC(C)(C)C(=O)NCC(=O)N[C@H](C(=O)N[C@H](CO)CC(C)C)[C@@H](C)CC [Peptide 2] (Octanoyl-[Aib]KL[Aib]GGL[Aib]GI[Leu(ol)]) | 3 µM (≈ 3.41 µg/mL) | - | - | complete inhibition | completely inhibit | Bacteriostatic (MIC) / bactericidal (MBC) activity at 2 µM [1]: -; Bacteriostatic (MIC) / bactericidal (MBC) activity at 3 µM [1]: MIC
CCCCCCCC(=O)NC(C)(C)C(=O)N[C@@H](CCCCN)C(=O)N[C@@H](CCCCN)C(=O)N[C@@H](CC(C)C)C(=O)NC(C)(C)C(=O)NCC(=O)N[C@H](C(=O)N[C@H](CO)CC(C)C)[C@@H](C)CC [Peptide 4c] (Octanoyl-[Aib]KKL[Aib]GI[Leu(ol)]) | 3 µM (≈ 2.86 µg/mL) | - | - | confirmed the Xcc growth inhibition detected at 15 µM | completely inhibited | Bacteriostatic (MIC) / bactericidal (MBC) activity at 2 µM [1]: -; Bacteriostatic (MIC) / bactericidal (MBC) activity at 3 µM [1]: MIC
CCCCCCCC(=O)NC(C)(C)C(=O)N[C@@H](CCCCN)C(=O)N[C@@H](CC(C)C)C(=O)NC(C)(C)C(=O)N[C@@H](CCCCN)C(=O)NCC(=O)N[C@@H](CC(C)C)C(=O)NC(C)(C)C(=O)N[C@@H](CCCCN)C(=O)N[C@H](C(=O)N[C@@H](CC(C)C)C(N)=O)[C@@H](C)CC [Peptide 5r] (Octanoyl-[Aib]KL[Aib]KGL[Aib]KIL-NH2) | 2 µM (≈ 2.59 µg/mL) | - | - | confirmed the Xcc growth inhibition detected at 15 µM | complete inhibition | 
CC[C@H](C)[C@H](NC(=O)[C@H](CCCCN)NC(=O)C(C)(C)NC(=O)[C@H](CC(C)C)NC(=O)[C@H](CCCCN)NC(=O)[C@H](CCCCN)NC(=O)C(C)(C)NC(=O)[C@H](CC(C)C)NC(=O)[C@H](CCCCN)NC(=O)C(C)(C)NC(=O)CN=[N+]=[N-])C(=O)N[C@H](CO)CC(C)C [Peptide 9] (Azidoacetyl-[Aib]KL[Aib]KKL[Aib]KI[Leu(ol)]) | 1 µM (≈ 1.31 µg/mL) | - | MIC | complete inhibition |  | 
CCCCCCCC(=O)NC(C)(C)C(=O)N[C@@H](CCCCN)C(=O)N[C@@H](CC(C)C)C(=O)NC(C)(C)C(=O)N[C@@H](CCCCN)C(=O)N[C@@H](CCCCN)C(=O)N[C@@H](CC(C)C)C(=O)NC(C)(C)C(=O)N[C@@H](CCCCN)C(=O)N[C@H](C(=O)N[C@@H](CC(C)C)C(=O)NC(C)(C)C(=O)N[C@@H](CCCCN)C(=O)N[C@@H](CC(C)C)C(=O)NC(C)(C)C(=O)N[C@@H](CCCCN)C(=O)N[C@@H](CCCCN)C(=O)N[C@@H](CC(C)C)C(=O)NC(C)(C)C(=O)N[C@@H](CCCCN)C(=O)N[C@H](C(=O)N[C@H](CO)CC(C)C)[C@@H](C)CC)[C@@H](C)CC [Peptide 10] (Octanoyl-[Aib]KL[Aib]KKL[Aib]KIL[Aib]KL[Aib]KKL[Aib]KI[Leu(ol)]) | 2 µM (≈ 5.14 µg/mL) | - | - | complete inhibition |  | 
CCCCCCCC(=O)NC(C)(C)C(=O)NCC(=O)N[C@@H](CC(C)C)C(=O)NC(C)(C)C(=O)NCC(=O)N[C@@H](CCCCN)C(=O)N[C@@H](CC(C)C)C(=O)NC(C)(C)C(=O)NCC(=O)N[C@H](C(=O)N[C@H](CO)CC(C)C)[C@@H](C)CC [Peptide 22] | 2 µM (≈ 2.28 µg/mL) | - | - | complete inhibition |  | Bacteriostatic (MIC) / bactericidal (MBC) activity at 3 µM [1]: -
CCCCCCCC(=O)NC(C)(C)C(=O)N[C@@H](CCCCN)C(=O)N[C@@H](CC(C)C)C(=O)NC(C)(C)C(=O)N[C@@H](CCCCN)C(=O)N[C@@H](CCCCN)C(=O)N[C@@H](CC(C)C)C(=O)NC(C)(C)C(=O)N[C@@H](CCCCN)C(=O)N[C@H](C(=O)N[C@H](CO)CC(C)C)[C@@H](C)CC [Peptide 23] (Octanoyl-[Aib]KL[Aib]KKL[Aib]KI[Leu(ol)]) | 1 µM (≈ 1.35 µg/mL) | - |  | complete inhibition |  | 
CCCCCCCC(=O)NC(C)(C)C(=O)N[C@@H](CCCCN)C(=O)N[C@@H](CC(C)C)C(=O)NC(C)(C)C(=O)N[C@@H](CCCCN)C(=O)N[C@@H](CCCCN)C(=O)N[C@@H](CC(C)C)C(=O)NC(C)(C)C(=O)NCC(=O)N[C@H](C(=O)N[C@H](CO)CC(C)C)[C@@H](C)CC [Peptide 24] (Octanoyl-[Aib]KL[Aib]KKL[Aib]GI[Leu(ol)]) | 1 µM (≈ 1.28 µg/mL) | - | MIC | complete inhibition |  | 
CCCCCCCC(=O)NC(C)(C)C(=O)N[C@@H](CCCCN)C(=O)N[C@@H](CC(C)C)C(=O)NC(C)(C)C(=O)N[C@@H](CCCCN)C(=O)N[C@@H](CCCCN)C(=O)N[C@@H](CC(C)C)C(=O)NC(C)(C)C(=O)NCC(=O)N[C@H](C(=O)N[C@@H](CC(C)C)C(N)=O)[C@@H](C)CC [Peptide 24r] (Octanoyl-[Aib]KL[Aib]KKL[Aib]GIL-NH2) | 1 µM (≈ 1.29 µg/mL) | - | MIC | confirmed the Xcc growth inhibition detected at 15 µM | complete inhibition | 
nOct-Aib-Gly-Leu-Aib-Gly-Gly-Leu-Aib-Gly-Ile-Lol [Trichogin GA IV, trichogin GA IV] |  |  |  |  | inactive | 
nOct-Aib-Gly-Leu-Aib-Gly-Gly-Leu-Aib-Lys-Ile-Lol [Peptide 25] |  |  |  | did not reduce |  | 
nOct-Aib-Gly-Leu-Aib-Gly-Gly-Leu-Api-Gly-Ile-Lol [Peptide 8] |  |  |  | did not reduce |  | 
nOct-Aib-Gly-Leu-Aib-Gly-Gly-Leu-Api-Ile-Lol [Peptide 8ApiC] |  |  |  | did not reduce |  | 
nOct-Aib-Gly-Leu-Aib-Gly-Lys-Leu-Aib-Gly-Ile-Leu-NH2 [Peptide 22r] |  |  |  |  | complete inhibition | 
nOct-Aib-Gly-Leu-Aib-Lys-Aib-Leu-Aib-Gly-Ile-Leu-NH2 [Peptide 6r] |  |  |  |  | weakly effective | 
nOct-Aib-Gly-Leu-Aib-Lys-Aib-Leu-Aib-Gly-Ile-Lol [Peptide 6] |  |  |  | partial growth inhibition effect | completely inhibit | Inhibition of P. oryzae [3]: strain-dependent inhibition
nOct-Aib-Gly-Leu-Aib-Lys-Gly-Leu-Aib-Gly-Ile-Lol [Peptide 3] | neither bacteriostatic nor bactericidal activity | - | - |  | inactive | Bacteriostatic (MIC) / bactericidal (MBC) activity at 2 µM [1]: -; Bacteriostatic (MIC) / bactericidal (MBC) activity at 3 µM [1]: -
nOct-Aib-Gly-Leu-Aib-Lys-Lys-Leu-Aib-Gly-Ile-Lol [Peptide 4] |  |  |  | did not reduce |  | 
nOct-Aib-Gly-Leu-Aib-Lys-Lys-Leu-Leu-NH2 (nOct-[Aib]GL[Aib]KKLL-NH2; reading uncertain) [Peptide 4c1] |  |  |  |  | weakly effective | 
nOct-Aib-Lys-Leu-Aib-Gly-Gly-Leu-Aib-Gly-Ile-Leu-NH2 [Peptide 2r] |  |  |  |  | complete inhibition | 
nOct-Aib-Lys-Leu-Aib-Gly-Lys-Leu-Aib-Gly-Ile-Lol [Peptide 7] |  |  |  | partial growth inhibition effect | completely inhibit | 
nOct-Aib-Lys-Leu-Aib-Lys-Gly-Leu-Aib-Gly-Ile-Lol [Peptide 1] |  |  |  | complete inhibition | completely inhibit | 
nOct-Aib-Lys-Leu-Aib-Lys-Gly-Leu-Aib-Lys-Ile-Lol [Peptide 5] |  |  |  | did not reduce |  | 
nOct-Aib-Lys-Lys-Leu-Aib-Gly-Ile-Leu-NH2 [Peptide 4c2] |  |  |  |  | no inhibitory effect | 
nOct-Toac-Gly-Leu-Aib-Gly-Gly-Leu-Aib-Arg-Ile-Lol [Peptide 11] |  |  |  | did not reduce |  | 
